# Test results from patent publication US9969741B2, “Pyrazolotriazines as inhibitors of nucleases” (MASARYKOVA UNIVERZITA, priority 2014, dated 2018).
# Molecular target: T1, EXO1 (Homo sapiens, UniProt Q9UQ84)
# T1 construct: made in house; host or cells: Escherichia coli BL21 (RIPL)
# T1 sequence (Q9UQ84 1-846): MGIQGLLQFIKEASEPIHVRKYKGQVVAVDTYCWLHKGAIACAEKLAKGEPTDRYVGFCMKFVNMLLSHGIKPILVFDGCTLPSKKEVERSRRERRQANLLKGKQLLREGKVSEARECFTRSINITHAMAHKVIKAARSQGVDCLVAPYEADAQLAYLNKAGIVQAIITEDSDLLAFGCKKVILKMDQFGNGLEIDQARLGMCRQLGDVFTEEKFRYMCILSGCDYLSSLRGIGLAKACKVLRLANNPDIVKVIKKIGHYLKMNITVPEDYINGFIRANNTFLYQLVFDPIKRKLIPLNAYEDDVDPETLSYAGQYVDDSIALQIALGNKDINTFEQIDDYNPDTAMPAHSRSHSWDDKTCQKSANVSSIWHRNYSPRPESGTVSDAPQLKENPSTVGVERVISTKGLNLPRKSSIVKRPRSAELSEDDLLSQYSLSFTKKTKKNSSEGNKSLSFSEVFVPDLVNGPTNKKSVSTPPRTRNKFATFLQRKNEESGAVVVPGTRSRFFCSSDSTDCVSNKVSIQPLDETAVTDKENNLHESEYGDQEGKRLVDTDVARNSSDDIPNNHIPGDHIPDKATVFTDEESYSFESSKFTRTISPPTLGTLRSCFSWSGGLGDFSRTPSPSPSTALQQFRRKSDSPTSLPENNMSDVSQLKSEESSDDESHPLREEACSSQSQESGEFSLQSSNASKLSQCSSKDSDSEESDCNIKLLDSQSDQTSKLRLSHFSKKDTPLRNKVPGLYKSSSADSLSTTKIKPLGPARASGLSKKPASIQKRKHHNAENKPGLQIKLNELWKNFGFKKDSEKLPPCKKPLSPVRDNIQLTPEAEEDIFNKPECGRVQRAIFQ
# Assay: Nuclease inhibition assay, EXO1 (3′ OH fluorescent DNA substrate, gel readout)
# Type: biochemical
# Details: 5 nM enzyme, 5 nM 3′ OH substrate, 15 min at 30° C.
# Source text: In vitro assays were used for the determination of compound's IC50 values for inhibition of individual nucleases, i.e., MUS81/EME1, FEN1, EXO1, and MRE11. To generate IC50 values, concentration of compound was plotted against relative nuclease activity (in %). The dose-response curves were generated from inhibition data, from 5 point serial dilutions of inhibitory compounds, each in triplicate and fitted to a standard sigmoid curve. IC50 values were derived by standard nonlinear regression analysis.
# All tested compounds were diluted in 100% DMSO (dimethylsulfoxide) to prepare working stocks with different concentrations. To keep the DMSO concentration constant in every reaction, always 0.5 μl of the compound stock was added to the reaction buffer. The reaction buffer differs depending on the enzyme tested. Also concentration of the compounds in the reaction depends on the particular enzyme, since the inhibitory effect of the compounds vary between the enzymes. Nevertheless, always doubling dilutions in the range 200-0.8 μM was used. The compound was added as the first component in the reaction buffer, followed by the enzyme addition. […]
# For this experiment we prepared short fluorescently labeled oligonucleotide-based DNA substrates with specific structures reflecting the biochemical activities of tested individual nucleases (Table 1). […] For visualization, each substrate was labeled by fluorescent dye (fluorescein), which can be detected in the gel using appropriate imaging system (FLA-9000, Fuji) with filters for particular wavelengths (excitation: 485 nm, emission: 535 nm).
# Nuclease assays were performed in reaction buffer specific for particular enzyme: MUS81/EME1 (50 mM Tris pH=7.5, 5 mM MgCl2, 1 mM DTT a 100 μg/ml BSA), MRE11 (30 mM Bis-Tris pH=7.0, 50 μg/ml BSA, 1 mM DTT a 250 μM MnCl2), EXO1 and FEN1 (50 mM Tris pH=7.5, 1 mM MgCl2, 1 mM DTT a 100 μg/ml BSA). […] Fluorescently labeled DNA was detected by FLA-9000 scanner (Fuji) and the result was evaluated using Multi-Gauge V3.2 software (Fuji). […]
row,SMILES,IC50 [µM]
1,CCc1nn2c(N)c(-c3nc4ccccc4[nH]3)nnc2c1-c1ccc(F)cc1 [Preparative Example 5A],> 50
2,Nc1c(-c2nc3ccccc3[nH]2)nnc2cc(-c3ccccc3)nn12 [Preparative Example 5C],> 50
3,Nc1c(-c2nc3ccccc3[nH]2)nnc2cc(-c3cccc4ccccc34)nn12 [Preparative Example 5K],> 50
